pIC50: −log10 of the molar value.
Assays:
proto-oncogene c-SRC = tested on: proto-oncogene c-SRC; set-up: method as in PMID 22148921; conditions: cited from earlier work
VEGFR-1 = tested on: VEGFR-1; set-up: method as in PMID 22148921; conditions: in vitro; cited from earlier work
[1] = Phase I safety: adverse events (CTCAE v3.0)
Method: Adverse events were recorded and graded according to the Common Terminology Criteria for Adverse Events, version 3.0.
Physical examinations, urinalysis, ECG, and laboratory evaluations (including serum chemistry and hematology) were performed at screening and on days 1, 2, 8, 15, 22, and 29 of cycle 1; on days 1, 15, and 29 of subsequent cycles; and at the end-of-treatment follow-up visit (14 days after the last dose). Adverse events were evaluated on days 2, 8, 15, and 22 of cycle 1; on days 1, 15, and 29 of every subsequent cycle; and at the end-of-treatment follow-up visit.

[2] = molecular target: fibroblast growth factor receptor-1; set-up: method as in PMID 22148921; conditions: cited from earlier work
[3] = tested on: advanced, relapsed/refractory solid tumors; test: Tumor response (RECIST) in phase I patients; format: in vivo, human
Text: (§1) The primary measures were MTD and DLTs. MTD was defined as the highest dose at which one-third or fewer of patients in a cohort experienced a DLT, which included grade ≥ 2 proteinuria, grade ≥ 3 nonhematologic toxicity (excluding hypertension and pain), grade ≥ 3 thrombocytopenia with bleeding, or grade 4 hematologic toxicity that was not clearly due to progressive cancer. Secondary measures included the pharmacokinetics of CEP-11981 after a single dose and multiple doses, the pharmacokinetic-pharmacodynamic profile of CEP-11981, safety, and preliminary efficacy. The efficacy endpoint was the proportion of patients who achieved complete or partial response on study (minimum of 6 weeks) according to Response Evaluation Criteria in Solid Tumors (RECIST) guidelines.

Tie-2 = tested on: Tie-2; set-up: method as in PMID 22148921; conditions: cited from earlier work
Aurora A = tested on: Aurora A; set-up: method as in PMID 22148921; conditions: cited from earlier work
VEGFR-2 = tested on: VEGFR-2; set-up: method as in PMID 22148921; conditions: in vitro; cited from earlier work
[4] = Phase I dose escalation: MTD and DLTs; format: in vivo, human
Method: This was an open-label, nonrandomized, multicenter, dose-escalation phase I study of CEP-11981 in patients with advanced, relapsed/refractory solid tumors. The study was conducted in accordance with Good Clinical Practice: Consolidated Guidance approved by the International Conference on Harmonisation, and applicable national and local laws and regulations and approved by appropriate Independent Ethics Committees or Institutional Review Boards. All patients provided written consent before study procedures or assessments were performed.
as §1
Oral CEP-11981 was administered once daily for the first 28 days of each 42-day cycle. Initial dose escalation from the starting dose of 3 mg/m^2 was by 40 % increments. After completion of additional toxicology studies and the preliminary analysis of plasma exposure in patients, the dose for the fourth cohort was doubled from the third cohort and thereafter the escalation followed a modified Fibonacci sequence. The final dose levels were: 3.0, 4.2, 5.9, 11.8, 19.7, 29.6, 41.4, 55.0, 73.0, 97.4, and 126.6 mg/m^2. The dose administered was rounded to the smallest capsule strength available. Dosing for a patient was to be stopped at the onset of a DLT and, at resolution within 14 days, could be resumed at a dose equal to 50 % of the patient’s current dose. […]

[5] = of 37 patients evaluated for tumor response

## 11-(2-methylpropyl)-12,13-dihydro-2-methyl-8-(pyrimidin-2-ylamino)-4H-indazolo[5,4-a]pyrrolo[3,4-c]carbazol-4-one [CEP-11981]
proto-oncogene c-SRC
  pIC50: 7.43
VEGFR-1
  pIC50: 8.52
[1]; 3.0 mg/m^2 n = 3
  Grade 3/4 adverse events: • Abdominal pain • Arthralgia • Back pain
[1]; 4.2 mg/m^2 n = 3
  Grade 3/4 adverse events: • Abdominal pain
[1]; 5.9 mg/m^2 n = 5
  Grade 3/4 adverse events: • Hyperkalemia
[1]; 19.7 mg/m^2 n = 3
  Grade 3/4 adverse events: • Back pain • Hypokalemia • Hyponatremia • Lumbar vertebral fracture
[1]; 55.0 mg/m^2 n = 5
  Grade 3/4 adverse events: • Abdominal pain • Anxiety • Arthralgia • Back pain • Cellulitis • Constipation • Hypokalemia • Impaired healing • Musculo-skeletal pain • Peripheral edema • Scrotal edema • Somnolence
[1]; 73.0 mg/m^2 n = 3
  Grade 3/4 adverse events: • Anemia • Leukopenia • Diarrhea • Decreased appetite • Musculo-skeletal pain • Neck pain • Headache • Pleural effusion
[1]; 126.6 mg/m^2 cohort
  Grade 4 leukopenia: 1 patient
  Grade 4 neutropenia: 1 patient
[1]; 126.6 mg/m^2 n = 2, ^b treatment-related
  Grade 3/4 adverse events: • Neutropenia^b • ECG change
[1]; across all groups
  Grade 3/4 abdominal pain: 7%
  Grade 3/4 back pain: 7%
  Grade 3/4 lymphopenia: 19%
  Grade 3/4 neutropenia: 7%
[1]; all cohorts
  Patients with ECG changes: 2%
  Patients with hypertension: 2%
[1]; all cohorts, N = 43
  Abdominal pain, any grade: 30%
  Back pain, any grade: 28%
  Constipation, any grade: 28%
  Deaths during the study: No deaths occurred
  Decreased appetite, any grade: 33%
  Diarrhea, any grade: 33%
  Dizziness, any grade: 28%
  Dyspnea, any grade: 23%
  Fatigue, any grade: 51%
  Headache, any grade: 28%
  Nausea, any grade: 47%
  Patients with adverse events possibly, probably, or definitely related to study drug: 88.3%
  Patients with grade 3 adverse events: 32.6%
  Patients with grade 3 or 4 adverse events: 37%
  Patients with grade 3 or 4 laboratory hematologic toxicities: 18.6%
  Patients with grade 4 adverse events: 4.7%
  Patients with ≥ 1 adverse event: 43 patients
  Serious adverse events: 12 patients
  Vomiting, any grade: 28%
[2]
  pIC50: 7.89
[3]; all cohorts
  Complete or partial response (RECIST): no enrolled patients had complete or partial response
[3]; cohorts receiving ≤ 55.0 mg/m^2 (11 of 29 patients)
  Frequency of stable disease: 37.9%
[3]; cohorts receiving ≥ 73.0 mg/m^2 (8 of 14 patients)
  Frequency of stable disease: 57.1%
[3]; intent-to-treat population (19 of 43 patients)
  Patients with stable disease at ≥ 6 weeks: 44%
[3]; [5]
  Patients with disease progression: 18 patients
  Patients with stable disease at ≥ 6 weeks: 51%
Tie-2
  pIC50: 7.66
Aurora A
  pIC50: 7.38
VEGFR-2
  pIC50: 8.40
[4]; 97.4 mg/m^2 cohort, n = 9
  DLTs: no DLTs were observed
[4]; 126.6 mg/m^2 cohort, n = 2
  Patients with DLTs: 2 patients
[4]; oral once daily, first 28 days of each 42-day cycle, patients with solid tumors
  Maximum-tolerated dose (MTD): 97.4 mg/m^2

Reference: publication PMC4226840, “An open-label study to determine the maximum tolerated dose of the multitargeted tyrosine kinase inhibitor CEP-11981 in patients with advanced cancer” (Investigational New Drugs, 2014)
